Experiments:
zrt1 strain = experiment: Cell-associated zinc, zrt1 strain; assay type: cell-based, Saccharomyces cerevisiae
Protocol: (§1) Zinc uptake assays were performed as described previously for iron uptake (Eide et al. (1992) J. Biol. Chem. 267:20774-20781) except that ^65ZnCl2 (Amersham) and LZM-EDTA were substituted for ^59FeCI3 and LIM-EDTA, respectively. Cells were incubated for 5 minutes in LZM-EDTA plus the indicated concentration of ^65Zn, collected on glass fiber filters (Schleicher and Schuell), washed with 10 ml ice-cold SSW (1 mM EDTA, 20 mM trisodium citrate, 1 mM KH2PO4, 1 mM CaCl2, 5 mM MgSO4, 1 mM NaCl pH 4.2), and cell-associated radioactivity was measured by liquid scintillation counting. […] Michaelis-Menten kinetic values were determined using […] software (Intellikinetics, Princeton, N.J.). […] The statistical significance of the differences of values relative to controls was determined with one-way analysis of variance (ANOVA) followed by a Dunnett multiple comparison test. β-galactosidase activity was assayed in cells harvested at an OD600 of 0.5-2.0 as described by Guarente (Guarente, L. (1983) Methods Enzymol. 101:181-191) and activity is expressed as the change in absorbance at 420 nm×1000 divided by (min×ml of culture used×OD600 of the culture). Cell-associated zinc was measured in parallel cultures supplemented with tracer amounts of ^65Zn (10 μM) and nonradioactive zinc to the indicated final concentration. […]

ZIP3 = biological target: T1, ZIP3 (Arabidopsis thaliana, UniProt Q9SLG3); experiment: Zn uptake by ZHY3 containing ZIP3; assay type: cell-based; conditions: ZIP3 containing ZHY3 cells, 5 minute time course using 10 mM Zn
T1 construct: expressed in transfected cells; host or cells: S. cerevisiae ZHY3 (zrt1::LEU2 zrt2::HIS3) with an Arabidopsis cDNA clone in pFL61
T1 sequence (Q9SLG3 26-339): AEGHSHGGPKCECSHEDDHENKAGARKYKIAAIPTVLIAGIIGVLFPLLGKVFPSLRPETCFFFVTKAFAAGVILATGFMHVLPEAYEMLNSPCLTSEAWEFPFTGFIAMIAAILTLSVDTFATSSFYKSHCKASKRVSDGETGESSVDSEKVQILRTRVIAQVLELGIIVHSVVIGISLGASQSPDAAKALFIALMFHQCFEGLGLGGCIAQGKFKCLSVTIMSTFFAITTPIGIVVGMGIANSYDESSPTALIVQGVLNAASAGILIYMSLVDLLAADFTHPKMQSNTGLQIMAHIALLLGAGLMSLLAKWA
Protocol: as §1

[1] = test system: divalent cation uptake system; conditions: total zinc; earlier studies (Fuhrmann and Rothstein 1968); read-out: apparent Km of zinc uptake by the divalent cation uptake system; cited from earlier work

Work on `[Zn+2]` [zinc] yielded a cell-associated zinc (zrt1 strain; 10 μM total zinc) of 133±12 pmol/10^6 cells, a cell-associated zinc (zrt1 strain; 1000 μM total zinc) of 168±14 pmol/10^6 cells and a Zn uptake rate (ZIP3) of 134 fmol/min/10^6 cells. For the same compound, the Km [1] was roughly 500 µM.

Source: patent publication US6590140B1, “Metal-regulated transporters and uses therefor” (Trustees of Dartmouth College, priority 1996, dated 2003)
